# Source: patent US20260250257A1, “ANTIBACTERIAL AND SYNERGISTIC ACTIVE COMPOUND AND USE THEREOF” (EAST CHINA UNIVERSITY OF SCIENCE AND TECHNOLOGY, priority 2023, published 2026)
# Test system: ATCC25922 strain (Escherichia coli)
# Experiment: Checkerboard antibacterial synergistic activity test with polymyxin E (FIC)
# Format: cell-based
# Set-up: key: FIC≤0.5 synergy; 0.5–1 additive; 1–2 indifferent; ≥2 antagonism
# Conditions: combined with polymyxin E
# Summary of the method: (§1)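 Interaction is reported as the fractional inhibitory concentration, read after 16 h of growth at 37° C. in Mueller-Hinton broth. Each well paired one level of polymyxin E (prepared at 16 to 0.015 μg/ml) with one of the test agent (prepared at 256 to 4 μg/ml) before bacteria were added.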
row,SMILES,Synergistic activity (FIC value) ATCC25922
1,CSc1cc2cc(C)ccn2c1-c1csc(N=C(N)N)n1 [Compound I-125],0.18
2,Clc1sc(N=C2NCCCN2)nc1-c1cccc(Br)c1 [Compound I-175],1.25
3,NC(N)=Nc1nc(-c2cccc(Oc3ccccc3)c2)cs1 [Compound I-2],0.51
4,FC(F)(F)c1cc(-c2nc(N=C3NCCCN3)sc2Cl)ccc1Cl [Compound I-186],0.52
5,NC(N)=Nc1nc(-c2cc(Cl)cc(Cl)c2)cs1 [Compound I-39],1.25
6,COc1ccc(Oc2ccccc2-c2csc(N=C3NCCCN3)n2)c(OC)c1 [Compound I-149],0.18
7,NC(N)=Nc1nc(-c2cccc(C(=O)Nc3ccccc3)c2)cs1 [Compound I-110],0.56
8,CSc1cc2c(Cl)cccn2c1-c1nc(N=C2NCCCN2)sc1Cl [Compound I-196],0.52
9,CC(C)c1ccc(-c2csc(N=C(N)N)n2)cc1 [Compound I-17],0.5

# Test system: ATCC9027 strain (Pseudomonas aeruginosa)
# Experiment: as above
# Format: cell-based
# Set-up: key: FIC≤0.5 synergy; 0.5–1 additive; 1–2 indifferent; ≥2 antagonism
# Conditions: combined with polymyxin E
# Summary of the method: as §1
row,SMILES,Synergistic activity (FIC value) ATCC9027
1,CSc1cc2cc(C)ccn2c1-c1csc(N=C(N)N)n1 [Compound I-125],0.28
2,Clc1sc(N=C2NCCCN2)nc1-c1cccc(Br)c1 [Compound I-175],1.25
3,NC(N)=Nc1nc(-c2cccc(Oc3ccccc3)c2)cs1 [Compound I-2],0.53
4,FC(F)(F)c1cc(-c2nc(N=C3NCCCN3)sc2Cl)ccc1Cl [Compound I-186],1.25
5,NC(N)=Nc1nc(-c2cc(Cl)cc(Cl)c2)cs1 [Compound I-39],1.25
6,COc1ccc(Oc2ccccc2-c2csc(N=C3NCCCN3)n2)c(OC)c1 [Compound I-149],0.28
7,NC(N)=Nc1nc(-c2cccc(C(=O)Nc3ccccc3)c2)cs1 [Compound I-110],0.5
8,CSc1cc2c(Cl)cccn2c1-c1nc(N=C2NCCCN2)sc1Cl [Compound I-196],1.25
9,CC(C)c1ccc(-c2csc(N=C(N)N)n2)cc1 [Compound I-17],0.63

# Test system: ATCC19606 strain (Acinetobacter baumannii)
# Experiment: as above
# Format: cell-based
# Set-up: key: FIC≤0.5 synergy; 0.5–1 additive; 1–2 indifferent; ≥2 antagonism
# Conditions: combined with polymyxin E
# Summary of the method: as §1
row,SMILES,Synergistic activity (FIC value) ATCC19606
1,CSc1cc2cc(C)ccn2c1-c1csc(N=C(N)N)n1 [Compound I-125],0.03
2,Clc1sc(N=C2NCCCN2)nc1-c1cccc(Br)c1 [Compound I-175],0.5
3,NC(N)=Nc1nc(-c2cccc(Oc3ccccc3)c2)cs1 [Compound I-2],0.26
4,FC(F)(F)c1cc(-c2nc(N=C3NCCCN3)sc2Cl)ccc1Cl [Compound I-186],0.13
5,NC(N)=Nc1nc(-c2cc(Cl)cc(Cl)c2)cs1 [Compound I-39],0.75
6,COc1ccc(Oc2ccccc2-c2csc(N=C3NCCCN3)n2)c(OC)c1 [Compound I-149],0.03
7,NC(N)=Nc1nc(-c2cccc(C(=O)Nc3ccccc3)c2)cs1 [Compound I-110],0.25
8,CSc1cc2c(Cl)cccn2c1-c1nc(N=C2NCCCN2)sc1Cl [Compound I-196],0.13
9,CC(C)c1ccc(-c2csc(N=C(N)N)n2)cc1 [Compound I-17],0.28

# Test system: ATCC13883 strain (Klebsiella pneumoniae)
# Experiment: as above
# Format: cell-based
# Set-up: key: FIC≤0.5 synergy; 0.5–1 additive; 1–2 indifferent; ≥2 antagonism
# Conditions: combined with polymyxin E
# Summary of the method: as §1
row,SMILES,Synergistic activity (FIC value) ATCC13883
1,CSc1cc2cc(C)ccn2c1-c1csc(N=C(N)N)n1 [Compound I-125],0.16
2,Clc1sc(N=C2NCCCN2)nc1-c1cccc(Br)c1 [Compound I-175],1.25
3,NC(N)=Nc1nc(-c2cccc(Oc3ccccc3)c2)cs1 [Compound I-2],0.75
4,FC(F)(F)c1cc(-c2nc(N=C3NCCCN3)sc2Cl)ccc1Cl [Compound I-186],0.19
5,NC(N)=Nc1nc(-c2cc(Cl)cc(Cl)c2)cs1 [Compound I-39],1.25
6,COc1ccc(Oc2ccccc2-c2csc(N=C3NCCCN3)n2)c(OC)c1 [Compound I-149],0.16
7,NC(N)=Nc1nc(-c2cccc(C(=O)Nc3ccccc3)c2)cs1 [Compound I-110],0.31
8,CSc1cc2c(Cl)cccn2c1-c1nc(N=C2NCCCN2)sc1Cl [Compound I-196],0.19
9,CC(C)c1ccc(-c2csc(N=C(N)N)n2)cc1 [Compound I-17],0.25

# Test system: ATCC25922 strain (Escherichia coli)
# Experiment: Broth microdilution, antibacterial activity of the compound used alone
# Format: cell-based
# Conditions: not given
# Description: (§2) The broth microdilution method was used to test the antibacterial effects of the compounds of the present invention against various Gram-negative bacterial strains when used alone.
row,SMILES,"Antibacterial activity of the compound of Formula I, ATCC25922 [µg/mL]"
1,CSc1cc2cc(C)ccn2c1-c1csc(N=C(N)N)n1 [Compound I-125],256
2,Clc1sc(N=C2NCCCN2)nc1-c1cccc(Br)c1 [Compound I-175],256
3,FC(F)(F)c1cc(-c2nc(N=C3NCCCN3)sc2Cl)ccc1Cl [Compound I-186],256
4,NC(N)=Nc1nc(-c2cc(Cl)cc(Cl)c2)cs1 [Compound I-39],128
5,COc1ccc(Oc2ccccc2-c2csc(N=C3NCCCN3)n2)c(OC)c1 [Compound I-149],256
6,NC(N)=Nc1nc(-c2cccc(C(=O)Nc3ccccc3)c2)cs1 [Compound I-110],256
7,CSc1cc2c(Cl)cccn2c1-c1nc(N=C2NCCCN2)sc1Cl [Compound I-196],256
8,CC(C)c1ccc(-c2csc(N=C(N)N)n2)cc1 [Compound I-17],256

# Same assay, conditions: read-out: Antibacterial activity of the compound of Formula I, ATCC25922
row,MIC [µg/mL],SMILES
1,256,NC(N)=Nc1nc(-c2cccc(Oc3ccccc3)c2)cs1 [Compound I-2]

# Test system: ATCC9027 strain (Pseudomonas aeruginosa)
# Experiment: as above
# Format: cell-based
# Conditions: not given
# Description: as §2
row,SMILES,"Antibacterial activity of the compound of Formula I, ATCC9027 [µg/mL]"
1,CSc1cc2cc(C)ccn2c1-c1csc(N=C(N)N)n1 [Compound I-125],256
2,Clc1sc(N=C2NCCCN2)nc1-c1cccc(Br)c1 [Compound I-175],256
3,FC(F)(F)c1cc(-c2nc(N=C3NCCCN3)sc2Cl)ccc1Cl [Compound I-186],256
4,NC(N)=Nc1nc(-c2cc(Cl)cc(Cl)c2)cs1 [Compound I-39],64
5,COc1ccc(Oc2ccccc2-c2csc(N=C3NCCCN3)n2)c(OC)c1 [Compound I-149],256
6,NC(N)=Nc1nc(-c2cccc(C(=O)Nc3ccccc3)c2)cs1 [Compound I-110],256
7,CSc1cc2c(Cl)cccn2c1-c1nc(N=C2NCCCN2)sc1Cl [Compound I-196],256
8,CC(C)c1ccc(-c2csc(N=C(N)N)n2)cc1 [Compound I-17],256

# Same assay, conditions: read-out: Antibacterial activity of the compound of Formula I, ATCC9027
row,MIC [µg/mL],SMILES
1,256,NC(N)=Nc1nc(-c2cccc(Oc3ccccc3)c2)cs1 [Compound I-2]

# Test system: ATCC19606 strain (Acinetobacter baumannii)
# Experiment: as above
# Format: cell-based
# Conditions: not given
# Description: as §2
row,SMILES,"Antibacterial activity of the compound of Formula I, ATCC19606 [µg/mL]"
1,CSc1cc2cc(C)ccn2c1-c1csc(N=C(N)N)n1 [Compound I-125],256
2,Clc1sc(N=C2NCCCN2)nc1-c1cccc(Br)c1 [Compound I-175],256
3,FC(F)(F)c1cc(-c2nc(N=C3NCCCN3)sc2Cl)ccc1Cl [Compound I-186],256
4,NC(N)=Nc1nc(-c2cc(Cl)cc(Cl)c2)cs1 [Compound I-39],256
5,COc1ccc(Oc2ccccc2-c2csc(N=C3NCCCN3)n2)c(OC)c1 [Compound I-149],256
6,NC(N)=Nc1nc(-c2cccc(C(=O)Nc3ccccc3)c2)cs1 [Compound I-110],256
7,CSc1cc2c(Cl)cccn2c1-c1nc(N=C2NCCCN2)sc1Cl [Compound I-196],256
8,CC(C)c1ccc(-c2csc(N=C(N)N)n2)cc1 [Compound I-17],256

# Same assay, conditions: read-out: Antibacterial activity of the compound of Formula I, ATCC19606
row,MIC [µg/mL],SMILES
1,256,NC(N)=Nc1nc(-c2cccc(Oc3ccccc3)c2)cs1 [Compound I-2]

# Test system: ATCC13883 strain (Klebsiella pneumoniae)
# Experiment: as above
# Format: cell-based
# Conditions: not given
# Description: as §2
row,SMILES,"Antibacterial activity of the compound of Formula I, ATCC13883 [µg/mL]"
1,CSc1cc2cc(C)ccn2c1-c1csc(N=C(N)N)n1 [Compound I-125],256
2,Clc1sc(N=C2NCCCN2)nc1-c1cccc(Br)c1 [Compound I-175],256
3,FC(F)(F)c1cc(-c2nc(N=C3NCCCN3)sc2Cl)ccc1Cl [Compound I-186],256
4,NC(N)=Nc1nc(-c2cc(Cl)cc(Cl)c2)cs1 [Compound I-39],128
5,COc1ccc(Oc2ccccc2-c2csc(N=C3NCCCN3)n2)c(OC)c1 [Compound I-149],256
6,NC(N)=Nc1nc(-c2cccc(C(=O)Nc3ccccc3)c2)cs1 [Compound I-110],256
7,CSc1cc2c(Cl)cccn2c1-c1nc(N=C2NCCCN2)sc1Cl [Compound I-196],256
8,CC(C)c1ccc(-c2csc(N=C(N)N)n2)cc1 [Compound I-17],256

# Same assay, conditions: read-out: Antibacterial activity of the compound of Formula I, ATCC13883
row,MIC [µg/mL],SMILES
1,256,NC(N)=Nc1nc(-c2cccc(Oc3ccccc3)c2)cs1 [Compound I-2]
